Measurements: PMC10820527, “Synthesis, Characterization, and Investigation of Anti-Inflammatory and Cytotoxic Activities of Novel Thiourea Derivatives of Naproxen” (Pharmaceutics, 2023)

Assays:
HeLa = experiment: MTT cytotoxicity assay, HeLa; assay type: cell-based, human; conditions: for IC50: Homo sapiens, HeLa, mean ± SD
Experimental: Three cancer cell lines (MDA-MB-231, HCT116 and HeLa; i.e., human breast cancer cells, human colorectal cancer cells, and human cervical cancer cells, respectively), and one non-malignant fibroblast MRC-5 cell line (control) were used in this study. The American Type Cell Collection (ATCC, Manassas, VA, USA) provided all examined cell lines. The cells were grown in a complete medium made up of high-glucose DMEM media supplemented with 10% fetal bovine serum and […] L-glutamine (both from Sigma-Aldrich, USA). The cells were cultured in 25 cc flasks (Thermo Fischer Scientific, Waltham, MA, USA) at 37 °C with 100% humidity in a 5% CO2 atmosphere.
The MTT test was used to assess the cytotoxicity of compounds 1–14 [44]. The cytotoxicity of naproxen was also investigated due to its clinical use and structural similarity. Throughout the exponential development period, cells were taken from culture flasks and counted, and 5 × 10^3 cells/well were planted into 96-well culture plates. Following that, the cell lines were treated with varying doses of the investigated chemicals (1–14), naproxen ([…]), and fresh complete media as a control. All evaluated cells were incubated for 24, 48, and 72 h at 37 °C in an environment containing 5% CO2 and 100% humidity. Following incubation, each well’s culture media was taken out, each well received an addition of MTT solution at a final concentration of 0.5 mg/mL, and the cells were left to incubate for an additional four hours. The MTT solution was then withdrawn carefully, and the formazan crystals were dissolved in DMSO. After shaking the plates for 10 min, absorbance at 595 nm was measured using a multiplate reader (Zenyth 3100, Anthos Labtec Instruments, Salzburg, Austria). All concentrations of the tested compounds were performed in three separate wells of the microtiter plates and in three separate experiments. The results were reported as a ratio to the control value, untreated cells. IC50 values were also determined using Microsoft Office Excel 2021. The percentage of viable cells was estimated by dividing the readout absorbance value in the wells containing treated cells by the average absorbance value measured in the wells containing untreated cells, and multiplying the result by 100 [44]. % of the viable cells = ((absorbance of treated cell-absorbance of blank)/(absorbance of untreated cell-absorbance of blank)) × 100(3)

[1] = test system: carrageenan-induced rat paw edema; experiment: Carrageenan-induced rat paw edema model; assay type: in vivo; conditions: for Rat Paw Thickness: mean ± SD; for inhibition in vivo at 2.5 mg/kg / inhibition in vivo at 5 mg/kg / inhibition in vivo at 10 mg/kg: Rattus norvegicus
Experimental: The Carrageenan-induced rat paw edema model was used to assess the anti-inflammatory potential of novel compounds 8–14. Induction of inflammation was performed in all animals by intraplantar injection of […] 0.5% carrageenan saline into the left hind paw.
Animals (n = 200) were randomly divided into the following groups: control groups, that received either 1% DMSO or naproxen, and experimental groups, that received the novel compounds 8–14.
Control groups included DMSO and naproxen groups. Rats belonging to the DMSO group received 1% DMSO in the same volume as the compounds 8–14, 60 min before carrageenan injection. Moreover, naproxen groups included rats that were subjected to naproxen treatment in three doses: 2.5 mg/kg, 5 mg/kg, and 10 mg/kg. Naproxen was applied in the same manner as 1% DMSO.
Experimental groups included rats that were treated with compounds 8–14 and they were divided into three subgroups depending on the applied dose: 2.5 mg/kg, 5 mg/kg, and 10 mg/kg. The examined compounds were dissolved in 1% DMSO prior to treatment and applied to rats 60 min before inducing inflammation, i.e., before carrageenan injection. Doses of naproxen and investigated compounds were defined based on our previously published research.
In order to quantify the anti-inflammatory effects of the tested compounds, left paw thickness was measured at specific time points: prior to inflammation induction (moment 0) and 1, 2, 3, and 4 h (moments 1, 2, 3, and 4) following carrageenan injection. Tissue thickness was measured in the middle of the rat paw using a Digital Vernier caliper (Aerospace, China). The percentage of inhibition of paw edema after treatment with different agents was calculated according to the formula, Equation (2):% Inhibition = 100 × [1 − (Yt/Yc)](2) where Yt = average increase in paw thickness in the treated group of rats between two measurement moments, and Yc = average increase in paw thickness in the untreated group of rats between two measurement moments.

[2] = 2.5 mg/kg, 1 h after carrageenan
[3] = 2.5 mg/kg, 2 h after carrageenan
[4] = 2.5 mg/kg, 3 h after carrageenan
[5] = 2.5 mg/kg, 4 h after carrageenan
[6] = 5.0 mg/kg, 1 h after carrageenan
[7] = 5.0 mg/kg, 2 h after carrageenan
[8] = 5.0 mg/kg, 3 h after carrageenan
[9] = 5.0 mg/kg, 4 h after carrageenan
[10] = 10.0 mg/kg, 1 h after carrageenan
[11] = 10.0 mg/kg, 2 h after carrageenan
[12] = 10.0 mg/kg, 3 h after carrageenan
[13] = 10.0 mg/kg, 4 h after carrageenan

Row | SMILES | IC50 (HeLa; 24 h) [µM] | IC50 (HeLa; 48 h) [µM] | IC50 (HeLa; 72 h) [µM] | Rat Paw Thickness [1, 2] [mm] | Rat Paw Thickness [1, 3] [mm] | Rat Paw Thickness [1, 4] [mm] | Rat Paw Thickness [1, 5] [mm] | Rat Paw Thickness [1, 6] [mm] | Rat Paw Thickness [1, 7] [mm] | Rat Paw Thickness [1, 8] [mm] | Rat Paw Thickness [1, 9] [mm] | Rat Paw Thickness [1, 10] [mm] | Rat Paw Thickness [1, 11] [mm] | Rat Paw Thickness [1, 12] [mm] | Rat Paw Thickness [1, 13] [mm] | inhibition in vivo at 2.5 mg/kg ([1]; 2.5 mg/kg, 1 h) [%] | inhibition in vivo at 2.5 mg/kg ([1]; 2.5 mg/kg, 2 h) [%] | inhibition in vivo at 2.5 mg/kg ([1]; 2.5 mg/kg, 3 h) [%] | inhibition in vivo at 2.5 mg/kg ([1]; 2.5 mg/kg, 4 h) [%] | inhibition in vivo at 5 mg/kg ([1]; 5.0 mg/kg, 1 h) [%] | other results
1 | COc1ccc2cc([C@H](C)C(=O)NC(=S)Nc3ccccc3C)ccc2c1 [Compound 10, (S)-2-(6-methoxynaphthalen-2-yl)-N-(o-tolylcarbamothioyl)propanamide] | > 200 | 111 ± 8.3 | 85.3 ± 9.1 | 6.17 ± 0.51 | 6.07 ± 0.83 | 5.77 ± 0.85 | 5.17 ± 0.75 | 6.47 ± 0.51 | 6.13 ± 0.47 | 5.77 ± 0.32 | 5.67 ± 0.40 | 6.20 ± 0.36 | 5.93 ± 0.31 | 5.70 ± 0.44 | 5.20 ± 0.44 | 18.4 | 13.6 | 13.5 | 33.3 | 29.3 | Cytotoxic effect against HeLa cells (in words) (HeLa): moderate cytotoxic effect; inhibition in vivo at 5 mg/kg ([1]; 5.0 mg/kg, 2 h): 36.4%; inhibition in vivo at 5 mg/kg ([1]; 5.0 mg/kg, 3 h): 44.1%; inhibition in vivo at 5 mg/kg ([1]; 5.0 mg/kg, 4 h): 37.8%; inhibition in vivo at 10 mg/kg ([1]; 10.0 mg/kg, 1 h): 19.7%; inhibition in vivo at 10 mg/kg ([1]; 10.0 mg/kg, 2 h): 22.7%; inhibition in vivo at 10 mg/kg ([1]; 10.0 mg/kg, 3 h): 20.7%; inhibition in vivo at 10 mg/kg ([1]; 10.0 mg/kg, 4 h): 35.6%
2 | COc1ccc2cc([C@H](C)C(=O)NC(=S)Nc3ccccc3OC)ccc2c1 [Compound 11, (S)-2-(6-methoxynaphthalen-2-yl)-N-((2-methoxyphenyl)carbamothioyl)propanamide] | > 200 | > 200 | > 200 | 7.30 ± 0.60 | 6.97 ± 0.67 | 6.67 ± 0.80 | 6.50 ± 0.80 | 6.97 ± 0.12 | 6.73 ± 0.15 | 6.27 ± 0.23 | 6.07 ± 0.15 | 7.33 ± 0.06 | 6.93 ± 0.12 | 6.63 ± 0.15 | 6.17 ± 0.31 | 22.4 | 28.8 | 31.5 | 26.7 | 22.4 | inhibition in vivo at 5 mg/kg ([1]; 5.0 mg/kg, 2 h): 24.2%; inhibition in vivo at 5 mg/kg ([1]; 5.0 mg/kg, 3 h): 35.1%; inhibition in vivo at 5 mg/kg ([1]; 5.0 mg/kg, 4 h): 33.3%; inhibition in vivo at 10 mg/kg ([1]; 10.0 mg/kg, 1 h): 10.2%; inhibition in vivo at 10 mg/kg ([1]; 10.0 mg/kg, 2 h): 18.2%; inhibition in vivo at 10 mg/kg ([1]; 10.0 mg/kg, 3 h): 18.9%; inhibition in vivo at 10 mg/kg ([1]; 10.0 mg/kg, 4 h): 31.1%
